From patent US4649137A, “2-acylaminomethyl-1,4-benzodiazepine compounds, the preparation thereof, and pharmaceutical compositions containing them” (Kali-Chemie Pharma GmbH, priority 1981, dated 1987)

Legend:
mouse [1] = experiment: Determination of the minimum toxic dose; assay type: in vivo, mouse (male); details: p.o.; maximum dose 300 mg/kg; symptoms recorded for 24 hours
Method: DETERMINATION OF THE MINIMUM TOXIC DOSE
Maximum doses of 300 mg/kg. of the test substance are administered orally to male mice of 20-25 g. weight. The animals are observed carefully for toxicity symptoms for 3 hours. In addition, all symptoms and cases of death are recorded for a period of 24 hours after administration. Accompanying symptoms are also observed and recorded. If death- or toxic symptoms are observed, decreasing doses are administered to additional mice until no more toxic symptoms occur. The lowest dose which induces toxic symptoms is reported as the minimum toxic dose.

mouse [2] = experiment: Tail flick ray test on the mouse; assay type: in vivo; details: sc, 0.5 h, s.c., 30 minutes after administration
Method: TAIL FLICK RAY TEST ON THE MOUSE
The method is based on the procedure described by D'Amour and Smith (1941). However, non-fasting male and female mice having body weights of 16-25 g. are used instead of rats. 30 minutes before treatment with the test substance, each mouse is placed alone in a cylindrical vessel such that it cannot turn round and move forward. Its tail, lying in a narrow groove, projects out of the vessel. A particular point on the tail of each animal (at about 35 mm. from the root of the tail) is subjected to the radiant heat from a lamp of known intensity and temperature which is situated directly beneath the tail. The time in seconds required by the mouse to flick the tail out of the ray of light is determined twice, once 30 and once 15 minutes before subcutaneous administration of the test substance (10 mg./kg.). The mice for which the reaction times deviate by more than 25% are eliminated. The reaction times are again measured 15 and 30 minutes after treatment and an increase in the reaction times of more than 75% of the average values before treatment of the same mouse is regarded as an analgesic effect. The ED50 (95% confidence range) of each test substance 30 minutes after administration is regarded as that dose which increases the reaction time before treatment by more than 75% in 50% of the animals. The calculation is carried out in accordance with the method of Litchfield and Wilcoxon (1949).

rat = experiment: Arthritis pain test on the rat (inhibition of the arthritis pain); assay type: in vivo, rat (male, strain OFA); details: p.o., 3 hours after oral dosage
Method: ARTHRITIS PAIN TEST ON THE RAT
Male rats of the strain OFA with a weight of 160-180 g. are anaesthetised by administration of 20 mg./kg. i.p. of phenobarbital sodium. 0.1 ml. of a suspension of Mycobacterium Smegmae (S1043) in paraffin oil (0.6 mg. of Mycobact./0.1 ml. of oil) are injected intracutaneously into the left rear paw. 14 days later, when a marked secondary arthritis has developed, particularly in the right rear paw, the effects of the test substances are investigated. 30 minutes before administration of the test substances, a control measurement in undertaken in which the ankle joint of the right rear paw is flexed three times and the number of sounds given out is counted. […] 3 hours after oral dosage of the test substance, the flexion procedure is repeated. Animals which either give out sound only once or not at all are regarded as being protected against pain. Between 9 and 20 rats are used per dose and the ED50 (95% confidence range) is determined by the method of Litchfield and Wilcoxon) (1949). The ED50 is designated at that dose which produces protection in 50% of the animals treated.

Row | Structure (SMILES) | Minimum toxic dose in the mouse (mouse [1]) [mg/kg] | ED50 (mouse [2]) [mg/kg] | ED50 (rat) [mg/kg]
1 | CN1c2ccccc2C(c2ccsc2)=NCC1CNC(=O)c1ccoc1 (stereo not shown) [Example 1, 1-Methyl-2-[(furan-3-carbonyl)-aminomethyl]-5-(3'-thienyl)-1H-2,3-dihydro-1,4-benzodiazepine] | 200 | 1 | 32 to 56
2 | COc1ccc2c(c1)N(C)C(CNC(=O)c1ccccc1)CN=C2c1ccsc1 (stereo not shown) [Example 5, 8-Methoxy-1-methyl-2-benzoylaminomethyl-5-(3'-thienyl)-1H-2,3-dihydro-1,4-benzodiazepine] | 300 | 2.7 | ~10
3 | CN1c2ccccc2C(c2ccsc2)=NCC1CNC(=O)c1ccc(C(F)(F)F)cc1 (stereo not shown) [Example 6, 1-Methyl-2-[(4'-trifluoromethylbenzoyl)-aminomethyl]-5-(3'-thienyl)-1H-2,3-dihydro-1,4-benzodiazepine] | 300 | – | 2
4 | CN1c2ccccc2C(c2ccsc2)=NCC1CNC(=O)c1ccc(C#N)cc1 (stereo not shown) [Example 7, 1-Methyl-2-[(4-cyanobenzoyl)-aminomethyl]-5-(3'-thienyl)-1H-2,3-dihydro-1,4-benzodiazepine] | > 300 | – | 8.5
5 | CN1c2ccccc2C(c2ccsc2)=NCC1CNC(=O)c1ccccc1 (stereo not shown) [Example 11] | 300 | 2.8 | ~2
6 | COc1ccc2c(c1)N(C)C(CNC(=O)c1ccc(C(F)(F)F)cc1)CN=C2c1ccsc1 (stereo not shown) [Example 12] | > 300 | – | 32
7 | COc1ccc2c(c1)N(C)C(CNC(=O)c1ccsc1)CN=C2c1ccsc1 (stereo not shown) [Example 13] | 200 | 10 | 32 to 56
8 | CN1c2cc3c(cc2C(c2ccsc2)=NCC1CNC(=O)c1cccs1)OCO3 (stereo not shown) [Example 14] | 100 | 5 | 32 to 56
9 | CN1c2ccccc2C(c2ccc(Cl)s2)=NCC1CNC(=O)c1ccc(C#N)cc1 (stereo not shown) [Example 84] | > 300 | – | 18
10 | Cc1ccsc1C1=NCC(CNC(=O)c2ccoc2)N(C)c2ccccc21 (stereo not shown) [Example 87] | – | 2.6 | 18 to 32
11 | Cc1ccsc1C1=NCC(CNC(=O)c2ccccc2)N(C)c2ccccc21 (stereo not shown) [Example 88] | – | 8.3 | 18 to 32
12 | Cc1ccsc1C1=NCC(CNC(=O)c2ccc(C#N)cc2)N(C)c2ccccc21 (stereo not shown) [Example 89] | – | – | 10
